“And” between values parts separate entries of the source, which are not always exact repeats. Equal values may be shown once.
Legend:
Assay type in all cases: physicochemical
[1] = Log D7.6 shake-flask (octanol/phosphate buffer) and Log P calculation; conditions: pH 7.6
Description: The actual weight was recorded. The solid was dissolved and diluted to volume with ACN:H2O (1:1, v/v). Stock solutions were prepared in duplicate. The stock solutions were diluted by 50 times by transferring 1 mL of stock solution into 50-mL volumetric flask and then diluted to volume with ACN/water ACN:H2O (1:1, v/v). The 1/50 solutions were used to collect spectra with full wave scanning from 190 nm to 700 nm and absorbance at 235 nm, 270 nm, 290 nm and 365 nm using spectrophotometer with the background subtracted. MEC was then calculated by the following equation: MEC(L mol−1 cm−1)=Absorbance/conc.(mol/L)/Cell length(cm) Log D7.6 Measurements Preparation of Solvents • 0.1 M KH2PO4: 1.36 g of solid KH2PO4 was added into a 100-mL volumetric flask, the solid was dissolved with ultrapure water and diluted to volume. • 0.1 M K2HPO4: 1.73 g of solid K2HPO4 was added into a 100-mL volumetric flask, the solid was dissolved with ultrapure water and diluted to volume. • 100 mL of 0.1 M K2HPO4 solution and 30 mL of 0.1 M KH2PO4 was transferred to a 250-mL beaker and mixed. […] Sample Analysis and Data Calculation • After phase separated, the phases were physically separated, and the concentrations of compounds in each phase were determined by HPLC using the HPLC conditions and parameters in Table 5. • Distribution coefficient, referred to as Dow, was calculated as the concentration of the test compound (both ionized and unionized) in the octanol phase divided by the corresponding concentration in the aqueous phase. Log D7.6 was calculated as an average of the log 10 of Dow based on three runs. […] The mixture was then diluted to volume with purified water, mixed, and pH was measured with a pH meter. • 50 mM citrate pH 4.0 buffer: 65.3 mg of citric acid (monohydrate) and 56.9 mg of sodium citrate (dihydrate) were transferred to a 10-mL volumetric flask, purified water was added to obtain the target volume, and pH was adjust to 4.0. […]

[2] = Solubility measurement in organic solvents at 25° C. for 24 hours; conditions: for solubility at 24 h: organic solvent or mixture, thermodynamic from solid; for Final form of residual solids: XRPD
[3] = Molar extinction coefficient (MEC) to evaluate photo reactivity; conditions: for MEC Ave.: average of duplicate
Description: The actual weight was recorded. The solid was dissolved and diluted to volume with ACN:H2O (1:1, v/v). Stock solutions were prepared in duplicate. The stock solutions were diluted by 50 times by transferring 1 mL of stock solution into 50-mL volumetric flask and then diluted to volume with ACN/water ACN:H2O (1:1, v/v). The 1/50 solutions were used to collect spectra with full wave scanning from 190 nm to 700 nm and absorbance at 235 nm, 270 nm, 290 nm and 365 nm using spectrophotometer with the background subtracted. MEC was then calculated by the following equation: MEC(L mol−1 cm−1)=Absorbance/conc.(mol/L)/Cell length(cm) Log D7.6 Measurements Preparation of Solvents • 0.1 M KH2PO4: 1.36 g of solid KH2PO4 was added into a 100-mL volumetric flask, the solid was dissolved with ultrapure water and diluted to volume. • 0.1 M K2HPO4: 1.73 g of solid K2HPO4 was added into a 100-mL volumetric flask, the solid was dissolved with ultrapure water and diluted to volume. • 100 mL of 0.1 M K2HPO4 solution and 30 mL of 0.1 M KH2PO4 was transferred to a 250-mL beaker and mixed. Then, pH was adjusted 7.4 with the KH2PO4 solution. • Octanol and aqueous buffer were pre-equilibrated by adding 10 mL octanol and 10 mL aqueous buffer into a 20-mL glass vial and agitating the vial for 24 hrs. The mutually saturated octanol and aqueous buffer were then separated after phase separation. Sample Set up • Approximately 1.0 mg solids were weighted into a 3-mL glass vial with 1.0 mL of octanol inside, and dissolution was accelerated by ultrasonication. Then, 1.0 mL of complementary aqueous buffer was added into the vial. Samples were prepared in triplicate. The glass vial was sealed and mixed on a rotary mixer at 25° C. for 24 hrs. Sample Analysis and Data Calculation • After phase separated, the phases were physically separated, and the concentrations of compounds in each phase were determined by HPLC using the HPLC conditions and parameters in Table 5. • Distribution coefficient, referred to as Dow, was calculated as the concentration of the test compound (both ionized and unionized) in the octanol phase divided by the corresponding concentration in the aqueous phase. Log D7.6 was calculated as an average of the log 10 of Dow based on three runs. Solubility/Stability Measurements in pH Buffers Stock Solution Preparation • 0.2 M Hydrochloric Acid: 166 μL of 12 M hydrochloric acid is added into a 10-mL volumetric flask, and the resulting mixture was diluted to volume with purified water and mixed. • 0.2 M Sodium Hydroxide: 80.0 mg of sodium hydroxide was weighted into a 10-mL volumetric flask. The solid was dissolved with volume of purified water, diluted to volume and mixed. • 0.2 M Potassium Chloride: 148.8 mg of potassium chloride was weighted into a 10-mL volumetric flask. The solid was dissolved with volume of purified water, diluted to volume and mixed. • 0.2 M Potassium Phosphate, Monobasic: 271.5 mg of monobasic potassium phosphate (KH2PO4) was weighed into a 10-mL volumetric flask. The solid was dissolved with appropriate volume of purified water, diluted to volume and mixed. • 0.2 M Boric Acid and Potassium Chloride: 124.3 mg of boric acid (H3BO3) and 149.5 mg of potassium chloride (KCl) were mixed into a 10-mL volumetric flask. The solid was dissolved with appropriate volume of purified water, diluted to volume and mixed. pH Buffers Preparation • 50 mM KCl pH 2.0 buffer: 2.5 mL of 0.2 M potassium chloride solution and 0.65 mL of 0.2 M hydrochloric acid solution were transferred to a 10-mL volumetric flask. Purified water is added to the target volume, and pH is adjusted to 2.0. The mixture was then diluted to volume with purified water, mixed, and pH was measured with a pH meter. • 50 mM citrate pH 4.0 buffer: 65.3 mg of citric acid (monohydrate) and 56.9 mg of sodium citrate (dihydrate) were transferred to a 10-mL volumetric flask, purified water was added to obtain the target volume, and pH was adjust to 4.0. […]

[4] = pKa measurement (Sirius T3, Yasuda-Shedlovsky extrapolation); conditions: Sirius T3, MeOH and KCl solution, pH 2 to 12, Yasuda-Shedlovsky extrapolation
Excerpt: pKa Measurements pKa measurements were taken using a Sirius T3 instrument in a solvent (MeOH and KCl solution). The process ran from low to high pH (2 to 12). MEC Measurements

Q: Which “Average of Log D7.6” value ([1]; 24 h) does the source give for `CCc1cc(F)c2nc(N3CCC(NC4CCOCC4)CC3)c(-c3nc(C)no3)c(C)c2c1.Cl` [HCl salt Type A, 1-(6-ethyl-8-fluoro-4-methyl-3-(3-methyl-1,2,4-oxadiazol-5-yl)quinolin-2-yl)-N-(tetrahydro-2H-pyran-4-yl)piperidin-4-amine hydrochloride] here?
A: 2.87

Q: And the logP ([1]; calculated: Log D7.6 + lg[1+10^(pKa-pH)])?
A: 4

Q: What about the logD [1] of the same compound?
A: 2.87

Q: What about the solubility at 24 h ([2]; 25 °C, nonpolar solvents (hexane, heptane and toluene)) of the same compound?
A: < 88 µg/mL

Q: And the solubility at 24 h ([2]; 25 °C, polar solvents (DMSO and MeOH))?
A: > 24900 µg/mL

Q: What about the “Final form of residual solids” value ([2]; Acetone, 24 hrs) of the same compound?
A: HCl salt Type A

Q: And the “Final form of residual solids” value ([2]; DMSO, 24 hrs, hydrochloride)?
A: Amorphous form

Q: What about the “Final form of residual solids” value ([2]; DMSO, 24 hrs, listed as HCl Salt Type A, hydrochloride) of the same compound?
A: Amorphons

Q: And the “Final form of residual solids” value ([2]; EtOAc (printed EtQAc), 24 hrs)?
A: HCl salt Type A

Q: And the “Final form of residual solids” value ([2]; EtOH, 24 hrs)?
A: HCl salt Type A

Q: And the “Final form of residual solids” value ([2]; Heptane, 24 hrs)?
A: HCl salt Type A

Q: What about the “Final form of residual solids” value ([2]; Hexane, 24 hrs) of the same compound?
A: HCl salt Type A

Q: What about the “Final form of residual solids” value ([2]; IPA, 24 hrs) of the same compound?
A: HCl salt Type A

Q: What about the “Final form of residual solids” value ([2]; MeOH, 24 hrs) of the same compound?
A: HCl salt Type A

Q: And the “Final form of residual solids” value ([2]; Toluene, 24 hrs)?
A: HCl salt Type A

Q: What about the solubility at 24 h ([2]; ethanol, EtOH, 25° C., 24 hrs) of the same compound?
A: 3500 µg/mL

Q: And the solubility at 24 h ([2]; methanol, MeOH, 25° C., 24 hrs)?
A: 24900 µg/mL

Q: And the solubility at 24 h ([2]; Acetone, 25° C., 24 hrs)?
A: 91 µg/mL

Q: And the solubility at 24 h ([2]; DMSO, 25° C., 24 hrs)?
A: 33500 µg/mL

Q: And the solubility at 24 h ([2]; EtOAc (printed EtQAc), 25° C., 24 hrs)?
A: 11 µg/mL

Q: What about the solubility at 24 h ([2]; Heptane, 25° C., 24 hrs) of the same compound?
A: 0.8 µg/mL

Q: What about the solubility at 24 h ([2]; Hexane, 25° C., 24 hrs) of the same compound?
A: 0.4 µg/mL

Q: What about the solubility at 24 h ([2]; Toluene, 25° C., 24 hrs) of the same compound?
A: 8.8 µg/mL

Q: What about the form change ([2]; organic solvents other than DMSO) of the same compound?
A: No form change

Q: And the “MEC Ave.” value ([3]; 235 nm)?
A: 26184.9 L/mol/cm

Q: And the MEC ([3]; 235 nm, single solution, ACN:H2O (1:1, v/v), hydrochloride)?
A: 26246.5 L/mol/cm and 26123.4 L/mol/cm

Q: And the “MEC Ave.” value ([3]; 270 nm)?
A: 29997.1 L/mol/cm

Q: What about the MEC ([3]; 270 nm, single solution, ACN:H2O (1:1, v/v), hydrochloride) of the same compound?
A: 30005.4 L/mol/cm and 29988.9 L/mol/cm

Q: And the “MEC Ave.” value ([3]; 290 nm)?
A: 13591.0 L/mol/cm

Q: What about the MEC ([3]; 290 nm, single solution, ACN:H2O (1:1, v/v), hydrochloride) of the same compound?
A: 13615.7 L/mol/cm and 13566.4 L/mol/cm

Q: What about the “MEC Ave.” value ([3]; 365 nm) of the same compound?
A: 2162.6 L/mol/cm

Q: What about the MEC ([3]; 365 nm, single solution, ACN:H2O (1:1, v/v), hydrochloride) of the same compound?
A: 2207.7 L/mol/cm and 2117.4 L/mol/cm

Q: And the MEC ([3]; at all selected wavelength)?
A: > 1000 L/mol/cm

Q: What about the pKa [4] of the same compound?
A: 8.68
